Measurements published in ChEMBL document CHEMBL5126605, “Nucleic-Acid-Based Targeted Degradation in Drug Discovery” (J Med Chem, 2022).

Columns and labels:
MDA-MB-231 [1] = test: Potency index, ratio of RIBOTAC activity of test compound to RIBOTAC activity of Dovitinib at Pre-miR-21 RNA/RNase L in human MDA-MB-231 cells assessed as decrease in mature miR-21 levels by RT-qPCR analysis; format: cell-based
MDA-MB-231 [2] = test: RIBOTAC activity at Pre-miR-21 RNA/RNase L in human MDA-MB-231 cells assessed as decrease in mature miR-21 levels at 0.2 uM by RT-qPCR analysis; format: cell-based; parameters: scale not given: the % may be the effect or the level left
[3] = Binding affinity to 5' Cy5-labeled Pre-miR-210 RNA (unknown origin) incubated for 30 mins in the presence of RNase L by microscale thermophoresis analysis
[4] = RIBOTAC activity at Pre-miR-21 RNA/RNase L in human MDA-MB-231 cells assessed as decrease in mature miR-21 levels by RT-qPCR analysis; format: cell-based
MDA-MB-231 [5] = test: RIBOTAC activity at Pre-miR-21 RNA/RNase L in human MDA-MB-231 cells assessed as decrease in mature miR-21 levels at 5 uM by RT-qPCR analysis; format: cell-based; parameters: scale not given: the % may be the effect or the level left
Huntingtin [6] = biological target: T1, Huntingtin (Homo sapiens, UniProt P42858); test: Inhibition of HTT (unknown origin)
T1 sequence (P42858 whole entry): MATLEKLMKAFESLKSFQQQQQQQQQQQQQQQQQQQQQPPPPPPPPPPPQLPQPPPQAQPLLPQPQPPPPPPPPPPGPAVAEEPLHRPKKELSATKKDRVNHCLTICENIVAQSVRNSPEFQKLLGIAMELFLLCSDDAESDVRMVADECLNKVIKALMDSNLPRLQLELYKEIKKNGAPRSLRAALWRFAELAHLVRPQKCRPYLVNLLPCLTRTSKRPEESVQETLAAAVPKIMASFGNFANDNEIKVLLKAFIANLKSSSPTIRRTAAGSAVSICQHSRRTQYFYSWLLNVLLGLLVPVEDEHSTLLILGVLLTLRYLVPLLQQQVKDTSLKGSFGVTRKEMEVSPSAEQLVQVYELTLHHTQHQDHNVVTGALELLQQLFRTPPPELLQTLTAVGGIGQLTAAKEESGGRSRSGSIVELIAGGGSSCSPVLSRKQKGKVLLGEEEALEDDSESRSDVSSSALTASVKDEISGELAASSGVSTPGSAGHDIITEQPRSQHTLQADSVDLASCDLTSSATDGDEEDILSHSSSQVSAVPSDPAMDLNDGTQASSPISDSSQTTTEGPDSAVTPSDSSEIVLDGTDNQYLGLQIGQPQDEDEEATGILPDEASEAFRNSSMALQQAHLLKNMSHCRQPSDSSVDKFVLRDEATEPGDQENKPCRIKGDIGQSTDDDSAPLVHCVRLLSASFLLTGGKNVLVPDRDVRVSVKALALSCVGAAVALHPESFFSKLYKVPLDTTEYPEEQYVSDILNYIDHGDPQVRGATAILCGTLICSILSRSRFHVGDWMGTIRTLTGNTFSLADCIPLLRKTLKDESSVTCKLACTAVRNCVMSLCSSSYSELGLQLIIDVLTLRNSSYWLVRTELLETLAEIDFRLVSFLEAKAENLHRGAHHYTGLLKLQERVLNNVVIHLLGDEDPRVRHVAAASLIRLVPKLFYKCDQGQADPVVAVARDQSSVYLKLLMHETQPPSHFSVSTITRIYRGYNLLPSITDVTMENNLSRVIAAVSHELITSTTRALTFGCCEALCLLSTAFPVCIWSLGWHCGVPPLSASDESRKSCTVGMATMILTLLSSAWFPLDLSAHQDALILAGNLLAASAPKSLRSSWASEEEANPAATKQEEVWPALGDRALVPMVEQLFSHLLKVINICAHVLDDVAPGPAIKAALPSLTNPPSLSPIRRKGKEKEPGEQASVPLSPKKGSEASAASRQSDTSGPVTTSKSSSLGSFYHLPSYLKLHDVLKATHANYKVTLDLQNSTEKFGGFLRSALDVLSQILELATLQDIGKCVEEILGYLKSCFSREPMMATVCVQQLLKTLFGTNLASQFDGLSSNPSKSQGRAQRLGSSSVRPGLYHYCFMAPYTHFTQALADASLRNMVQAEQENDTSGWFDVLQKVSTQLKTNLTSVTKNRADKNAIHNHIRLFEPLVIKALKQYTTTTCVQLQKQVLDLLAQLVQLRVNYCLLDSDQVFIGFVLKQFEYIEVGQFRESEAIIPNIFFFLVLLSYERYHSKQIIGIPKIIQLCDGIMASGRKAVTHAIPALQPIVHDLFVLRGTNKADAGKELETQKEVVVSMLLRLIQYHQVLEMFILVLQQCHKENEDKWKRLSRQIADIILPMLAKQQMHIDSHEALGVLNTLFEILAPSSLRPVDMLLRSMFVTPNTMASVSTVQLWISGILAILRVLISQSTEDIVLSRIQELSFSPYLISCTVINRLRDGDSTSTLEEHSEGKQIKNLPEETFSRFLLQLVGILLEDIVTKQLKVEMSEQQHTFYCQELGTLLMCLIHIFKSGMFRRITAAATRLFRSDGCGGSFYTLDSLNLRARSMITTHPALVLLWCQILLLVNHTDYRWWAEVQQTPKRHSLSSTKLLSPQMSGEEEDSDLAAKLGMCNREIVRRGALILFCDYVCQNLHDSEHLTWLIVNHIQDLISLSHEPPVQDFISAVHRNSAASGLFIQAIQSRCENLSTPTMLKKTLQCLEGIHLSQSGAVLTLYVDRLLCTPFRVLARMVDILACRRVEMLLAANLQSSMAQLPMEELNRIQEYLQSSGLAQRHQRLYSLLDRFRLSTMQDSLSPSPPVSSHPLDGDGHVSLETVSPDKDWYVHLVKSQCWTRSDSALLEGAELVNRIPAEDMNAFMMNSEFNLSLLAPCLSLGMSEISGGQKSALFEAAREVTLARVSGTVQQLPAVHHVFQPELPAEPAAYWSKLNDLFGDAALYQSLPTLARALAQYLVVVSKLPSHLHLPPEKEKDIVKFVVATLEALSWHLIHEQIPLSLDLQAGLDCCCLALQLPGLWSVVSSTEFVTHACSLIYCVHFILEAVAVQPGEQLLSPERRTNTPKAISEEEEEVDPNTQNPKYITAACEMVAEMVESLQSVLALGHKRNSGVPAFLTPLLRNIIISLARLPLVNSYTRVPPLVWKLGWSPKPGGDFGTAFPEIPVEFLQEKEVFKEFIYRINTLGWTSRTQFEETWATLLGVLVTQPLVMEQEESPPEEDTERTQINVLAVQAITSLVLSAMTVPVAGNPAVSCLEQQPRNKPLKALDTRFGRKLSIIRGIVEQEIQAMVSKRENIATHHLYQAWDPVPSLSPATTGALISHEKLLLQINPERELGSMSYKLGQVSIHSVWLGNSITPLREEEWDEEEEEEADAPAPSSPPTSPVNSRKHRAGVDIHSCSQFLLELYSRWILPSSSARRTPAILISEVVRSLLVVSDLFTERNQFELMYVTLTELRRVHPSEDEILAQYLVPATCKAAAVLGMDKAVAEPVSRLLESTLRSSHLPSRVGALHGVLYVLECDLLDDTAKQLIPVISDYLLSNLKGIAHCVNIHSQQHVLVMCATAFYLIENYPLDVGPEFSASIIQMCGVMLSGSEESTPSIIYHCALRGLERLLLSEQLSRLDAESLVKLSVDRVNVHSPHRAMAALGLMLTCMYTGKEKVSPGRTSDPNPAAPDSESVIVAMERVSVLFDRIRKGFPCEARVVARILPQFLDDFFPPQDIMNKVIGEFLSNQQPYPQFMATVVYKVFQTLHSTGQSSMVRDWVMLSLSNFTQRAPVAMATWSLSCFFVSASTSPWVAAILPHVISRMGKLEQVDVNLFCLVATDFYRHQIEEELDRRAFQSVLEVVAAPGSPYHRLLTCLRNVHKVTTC

[7] = biological target: T2, von Hippel-Lindau disease tumor suppressor/Bromodomain-containing protein 4 (Homo sapiens, UniProt O60885+P40337); test: PROTAC activity at VHL/BRD4 in human MCF7 cells assessed as BRD4 degradation by measuring maximum efficacy at 50 nM measured after 24 hrs by Western blot analysis relative to control; format: cell-based
T2 sequence (P40337 whole entry, looked up, other chains not shown): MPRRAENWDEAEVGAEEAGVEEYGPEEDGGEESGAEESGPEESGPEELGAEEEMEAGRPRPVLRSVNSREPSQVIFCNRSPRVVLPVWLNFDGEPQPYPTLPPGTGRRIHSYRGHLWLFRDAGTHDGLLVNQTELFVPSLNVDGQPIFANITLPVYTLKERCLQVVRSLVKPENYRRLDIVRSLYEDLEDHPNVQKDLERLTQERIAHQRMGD

[8] = biological target: T2, von Hippel-Lindau disease tumor suppressor/Bromodomain-containing protein 4; test: PROTAC activity at VHL/BRD4 in human MCF7 cells assessed as BRD4 degradation measured after 24 hrs by Western blot analysis; format: cell-based
MCF7 = test: Antitumor activity human MCF7 cells xenografted in nude mouse assessed as tumor growth inhibition at 10 mg/kg, iv administered every other day for 21 days; format: functional; settings: MCF7, 504 h, time 21 day, read-out: TGI
Huntingtin [9] = biological target: T1, Huntingtin; test: Induction of human HTT degradation in human SH-SY5Y cells assessed as decrease in normal HTT protein levels at 125 nM by Western blot analysis; format: cell-based; parameters: scale not given: the % may be the effect or the level left
Huntingtin [10] = biological target: T1, Huntingtin; test: Induction of human HTT degradation in human SH-SY5Y cells assessed as decrease in HTT-transcript levels at 125 nM; format: cell-based; parameters: scale not given: the % may be the effect or the level left
[11] = Binding affinity to Cy5-labeled SARS-CoV-2 Attenuator hairpin RNA incubated for 20 mins by microscale thermophoresis analysis; parameters: species or system Severe acute respiratory syndrome coronavirus 2
[12] = Selectivity index, ratio of Kd for binding affinity to 5' Cy5-labeled microRNA-210 hairpin precursor (unknown origin) to Kd for binding affinity to 5' Cy5 end-labeled DNA hairpin (unknown origin) incubated for 30 mins in the presence of RNase L by microscale thermophoresis analysis
[13] = Binding affinity to 5' Cy5 end-labeled DNA hairpin (unknown origin) incubated for 30 mins in the presence of RNase L by microscale thermophoresis analysis

CCOC(=O)C1=C(Nc2ccccc2)S/C(=C\c2ccc(OCCOCCOCCOCCNC(=O)NCCN3CCN(c4ccc5nc(-c6c(N)c7c(F)cccc7[nH]c6=O)[nH]c5c4)CC3)c(O)c2)C1=O
Ratio (MDA-MB-231 [1]): 5
Activity (MDA-MB-231 [2]): 30%

CN1CCN(c2ccc3nc(-c4ccc5[nH]c(-c6cccc(OCCCC(=O)NCCCOCC(O)COP(=O)(O)O[C@@H]7[C@H](O)[C@@H](COP(=O)(O)O[C@@H]8[C@H](O)[C@@H](COP(=O)(O)O[C@@H]9[C@H](O)[C@@H](COP(=O)(O)O[C@@H]%10[C@H](O)[C@@H](COP(=O)(O)O)O[C@H]%10n%10cnc%11c(N)ncnc%11%10)O[C@H]9n9cnc%10c(N)ncnc%109)O[C@H]8n8cnc9c(N)ncnc98)O[C@H]7n7cnc8c(N)ncnc87)c6)nc5c4)[nH]c3c2)CC1 (some centres not stated)
Kd [3]: 340 nM

CCCN(CC(=O)N(CCC)CC(=O)N(CCC)CC(=O)N(CC(=O)NCCOCCOCCOCCOc1ccc(/C=C2\SC(Nc3ccccc3)=C(C(=O)OCC)C2=O)cc1O)Cc1cn(CCCNC(=O)CCCOc2ccc(-c3nc4ccc(-c5ccc(N6CCN(C)CC6)cc5)cc4[nH]3)cc2)nn1)C(=O)CN(Cc1cn(CCCNC(=O)CCCOc2ccc(-c3nc4cc(-c5ccc(N6CCN(C)CC6)cc5)ccc4[nH]3)cc2)nn1)C(C)=O
IC50 [4]: 50 nM

CN1CCN(c2ccc3nc(-c4c(N)c5c(F)cccc5[nH]c4=O)[nH]c3c2)CC1
Activity (MDA-MB-231 [5]): 30%

CC1(C)CC(Oc2ccc(-c3ccc(-c4ccnc(O)c4)cc3O)nn2)CC(C)(C)N1
IC50 (Huntingtin [6]): 40 nM

Cc1ncsc1-c1ccc([C@H](C)NC(=O)[C@@H]2C[C@@H](O)CN2C(=O)[C@H](NC(=O)COCCOCCOCCNC(=O)C[C@@H]2N=C(c3ccc(Cl)cc3)c3c(sc(C)c3C)-n3c(C)nnc32)C(C)(C)C)cc1
Emax [7]: > 90%
EC50 [8]: 13 nM
inhibition in vivo at 10 mg/kg (MCF7): 59.8%

CC1(C)CC(Oc2ccc(-c3ccc(-c4cn[nH]c4)cc3O)nn2)CC(C)(C)N1
Activity (Huntingtin [9]): 53%
Activity (Huntingtin [10]): 95%

CNc1nc(Nc2cccc(C(=O)O)c2)nc2ccccc12
Kd [11]: 11 nM

CCN1CCC(c2cc3c(F)cc(-c4cc(C)c5nc(C)cn5n4)cc3nn2)CC1
IC50 (Huntingtin [6]): 8 nM

CN1CCN(c2ccc3nc(-c4ccc5[nH]c(-c6cccc(OCCCC(=O)NCCCN=[N+]=[N-])c6)nc5c4)[nH]c3c2)CC1
Ratio [12]: 5
Kd [13]: 620 nM
Kd [3]: 160 nM

CCN1CCC(c2cc(C)c3nc(-c4ccc5nn(C)cc5c4)cc(=O)n3c2)CC1
IC50 (Huntingtin [6]): 80 nM
